Data: PMC7578299, “The antiviral effects of baloxavir marboxil against influenza A virus infection in ferrets” (Influenza and Other Respiratory Viruses, 2020)

Legend:
Assay type in all cases: in vitro ADME
[1] = Metabolic stability in liver microsomes, monkey; conditions: for % Residual in liver microsome: monkey, 2 μmol/L, pH 7.4
Method: (§1) Liver microsomes were prepared from ferrets, rats, dogs, and monkeys, as previously described. ^28 Human liver microsomes were obtained from Sekisui‐XenoTech, LLC and pooled (n = 15). Metabolic stability of the compounds in liver microsomes was tested in duplicate. Oseltamivir and cefcapene pivoxil were used as reference compounds. Liver microsomes at 0.5 mg/mL concentration (final volume of 0.2 mL) were incubated in Tris‐HCl buffer (pH 7.4), containing 50 mmol/L Tris‐HCl, 150 mmol/L KCl, 10 mmol/L MgCl2. The hydrolysis reaction was initiated by applying the test compound solution (final concentration 2 μmol/L). After incubation for 10, 20, and 30 minutes at 37°C, the hydrolysis was terminated by the addition of twofold volume of ice‐cold acetonitrile/methanol (1:1, v/v). Samples were centrifuged at 3000 rpm for 10 minutes prior to LC‐MS/MS analysis of compounds in the supernatants.

[2] = Metabolic stability in liver microsomes, ferret; conditions: for % Residual in liver microsome: ferret, 2 μmol/L, pH 7.4
Method: as §1

[3] = Metabolic stability in liver microsomes, human; conditions: 2 μmol/L, pH 7.4
Method: as §1

[4] = Metabolic stability test, control (microsome free); conditions: 2 μmol/L, pH 7.4
Method: as §1

[5] = Metabolic stability in liver microsomes, rat; conditions: for % Residual in liver microsome: 2 μmol/L, pH 7.4
Method: as §1

[6] = Metabolic stability in liver microsomes, dog; conditions: for % Residual in liver microsome: 2 μmol/L, pH 7.4
Method: as §1

CCOC(=O)C1=C[C@@H](OC(CC)CC)[C@H](NC(C)=O)[C@@H](N)C1 [OSP, oseltamivir phosphate]
% Residual in liver microsome ([1]; 10 min): 73.6%
% Residual in liver microsome ([1]; 20 min): 59.1%
% Residual in liver microsome ([1]; 30 min): 45.2%
% Residual in liver microsome ([2]; 10 min): 106.5%
% Residual in liver microsome ([2]; 20 min): 107.2%
% Residual in liver microsome ([2]; 30 min): 109.0%
stability in liver microsomes (in words) ([2]; microsomes): stable
% Residual in liver microsome ([3]; 10 min): 89.8%
% Residual in liver microsome ([3]; 20 min): 64.8%
% Residual in liver microsome ([3]; 30 min): 49.7%
% Residual, Control (Microsome free) ([4]; 10 min): 106.4%
% Residual, Control (Microsome free) ([4]; 20 min): 105.4%
% Residual, Control (Microsome free) ([4]; 30 min): 111.3%
% Residual in liver microsome ([5]; 10 min): 110.8%
% Residual in liver microsome ([5]; 20 min): 119.2%
% Residual in liver microsome ([5]; 30 min): 117.3%
stability in liver microsomes (in words) ([5]; microsomes): stable
% Residual in liver microsome ([6]; 10 min): 115.8%
% Residual in liver microsome ([6]; 20 min): 109.6%
% Residual in liver microsome ([6]; 30 min): 110.5%
stability in liver microsomes (in words) ([6]; microsomes): stable

CC/C=C(\C(=O)N[C@@H]1C(=O)N2C(C(=O)OCOC(=O)C(C)(C)C)=C(COC(N)=O)CS[C@H]12)c1csc(N)n1.Cl [Cefcapene pivoxil, cefcapene pivoxil hydrochloride]
% Residual in liver microsome Individual value [1]: 0.0%
